Assay results as given in patent US9914760B2, “Methods of identifying, isolating and using odorant and aroma receptors” (Firmenich SA, priority 2013, dated 2018).

Experiments:
Assay in all cases: cell-based calcium-flux assay, HEK293T with Gα15
OR8S1 = target: T1, OR8S1 (Homo sapiens, UniProt Q8NH09); settings: dose-response curves FIG. 6D-J
T1 construct: expressed in transfected cells
T1 sequence (Q8NH09 1-359): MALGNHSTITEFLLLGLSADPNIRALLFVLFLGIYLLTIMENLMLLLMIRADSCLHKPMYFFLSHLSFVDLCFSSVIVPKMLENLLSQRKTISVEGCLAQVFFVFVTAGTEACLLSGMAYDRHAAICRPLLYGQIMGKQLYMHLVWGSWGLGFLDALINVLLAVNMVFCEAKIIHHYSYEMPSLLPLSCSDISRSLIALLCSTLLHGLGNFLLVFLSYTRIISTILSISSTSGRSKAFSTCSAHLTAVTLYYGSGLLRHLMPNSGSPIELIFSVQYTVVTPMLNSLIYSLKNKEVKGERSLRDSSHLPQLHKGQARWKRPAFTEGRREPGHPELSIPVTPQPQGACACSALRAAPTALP
Description: (§1) The activity of candidate human indole and skatole malodors receptors OR52N2 (SEQ ID NO: 11 and SEQ ID NO: 12), OR11G2 (SEQ ID NO: 13 and SEQ ID NO: 14, OR5AC2 (SEQ ID NO: 75 and SEQ ID NO: 76), OR4C15 (SEQ ID NO: 79 and SEQ ID NO: 80), OR8S1 (SEQ ID NO: 83 and SEQ ID NO: 84), OR11H6 (SEQ ID NO: 15 and SEQ ID NO: 16) and OR11H4 (SEQ ID NO: 49 and SEQ ID NO: 50) and candidate mouse indole and skatole malodors receptors Olfr665 (SEQ ID NO: 9 and SEQ ID NO 10) and Olfr740 (SEQ ID NO: 1 and SEQ ID NO 2) were confirmed in cell-based calcium-flux assays (FIGS. 6A to 6J). Cells stably co-expressing Rho-tagged human OR52N2 (FIG. 6A, B) or OR11G2 (FIG. 6C) and Gα15 (SEQ ID NO: 25) were exposed to increasing concentrations of skatole or indole. FIG. 6B is a repeat experiment showing similar activity of OR52N2 with indole and skatole. Odorant-induced OR52N2 or OR11G2 activity was detected by measuring the maximum Calcium 5 dye (Molecular Devices) fluorescence change following odorant exposure. Activity is defined as the baseline corrected Relative Fluorescent Units (RFU) ratios normalized to the highest RFU in the experiment in FIG. 6A. […] A cell line lacking a receptor, for example hOR52N2, was used as a control for non-specific activity at high concentrations (‘Indole control’ and ‘Skatole control’). The human receptor OR52N2 (SEQ ID NO: 11 and SEQ ID NO: 12) was identified because of its sequence similarity to mouse Olfr665 (SEQ ID NO: 10), an indole/skatole receptor isolated from olfactory neurons responding to both indole and skatole. The human receptor OR11G2 (SEQ ID NO: 13 and SEQ ID NO: 14) was identified because of its sequence similarity to mouse Olfr740 (SEQ ID NO: 2), an indole/skatole receptor isolated from olfactory neurons responding to both indole and skatole. The receptors were modified with the Rho sequence and stably expressed in HEK 293T cells. Further examples show indole and skatole dose-response curves for human receptors OR5AC2, OR4C15, OR8S1, OR11H6, OR11H4 and mouse receptors Olfr665 and Olfr740 (FIG. 6D-J). The human receptor OR5AC2 (SEQ ID NO: 75 and SEQ ID NO: 76) was identified because of its sequence similarity to mouse Olfr207 (SEQ ID NO: 78), a receptor isolated from olfactory neurons responding to both indole and skatole. The human receptor OR4C15 (SEQ ID NO: 79 and SEQ ID NO: 80) was identified because of its sequence similarity to mouse Olfr211 (SEQ ID NO: 82), a receptor isolated from olfactory neurons responding to both indole and skatole. The human receptor OR8S1 (SEQ ID NO: 83 and SEQ ID NO: 84) was identified because of its sequence similarity to mouse Olfr257 (SEQ ID NO: 86), a receptor isolated from olfactory neurons responding to both indole and skatole. The human receptor OR11H6 (SEQ ID NO: 15 and SEQ ID NO: 16) was identified because of its sequence similarity to mouse Olfr745 (SEQ ID NO: 8), a receptor isolated from olfactory neurons responding to both indole and skatole. The human receptor OR11H4 (SEQ ID NO: 49 and SEQ ID NO: 50) was identified because of its sequence similarity to mouse Olfr746 (SEQ ID NO: 38), a receptor isolated from olfactory neurons responding to both indole and skatole. The mouse receptor Olfr665 (SEQ ID NO: 9 and SEQ ID NO: 10) was identified directly from NGS data from isolated olfactory neurons responding to both indole and skatole. The mouse receptor Olfr740 (SEQ ID NO: 1 and SEQ ID NO: 2) was identified directly from NGS data from isolated olfactory neurons responding to both indole and skatole. Co-expression of the human G alpha subunit Gα15 activates the Gq transduction pathway that leads to an internal Ca2+ increase upon binding to the appropriate ligand.

OR11H4 = target: T2, OR11H4 (Homo sapiens, UniProt Q8NGC9); settings: dose-response curves FIG. 6D-J
T2 construct: expressed in transfected cells
T2 sequence (Q8NGC9 1-324): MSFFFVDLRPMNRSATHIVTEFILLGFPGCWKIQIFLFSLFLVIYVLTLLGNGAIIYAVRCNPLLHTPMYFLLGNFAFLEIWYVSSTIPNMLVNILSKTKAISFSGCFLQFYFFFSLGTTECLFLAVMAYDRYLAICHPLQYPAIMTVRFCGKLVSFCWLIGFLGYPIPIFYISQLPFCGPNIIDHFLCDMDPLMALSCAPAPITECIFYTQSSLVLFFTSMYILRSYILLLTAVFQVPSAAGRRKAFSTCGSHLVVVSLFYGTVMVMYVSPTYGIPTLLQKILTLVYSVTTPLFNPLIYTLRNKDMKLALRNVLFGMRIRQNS
Description: as §1

OR11G2 = target: T3, OR11G2 (Homo sapiens, UniProt Q8NGC1); settings: increasing concentrations; FIG. 6C
T3 construct: expressed in transfected cells
T3 sequence (Q8NGC1 35-345): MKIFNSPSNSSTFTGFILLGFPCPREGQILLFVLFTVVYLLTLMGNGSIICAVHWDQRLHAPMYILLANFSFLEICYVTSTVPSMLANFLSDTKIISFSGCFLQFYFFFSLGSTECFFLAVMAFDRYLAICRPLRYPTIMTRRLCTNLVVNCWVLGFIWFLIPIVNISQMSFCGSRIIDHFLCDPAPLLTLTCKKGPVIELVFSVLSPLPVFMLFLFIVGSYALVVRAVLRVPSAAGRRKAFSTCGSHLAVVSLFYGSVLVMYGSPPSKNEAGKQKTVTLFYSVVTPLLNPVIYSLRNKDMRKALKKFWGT
Description: as §1

In the case of `c1ccc2[nH]ccc2c1` [indole], the “receptor response in vitro” value (OR8S1) was “responded”, the “receptor response in vitro” value (OR11H4) was “responded” and the “receptor activity (Calcium 5 dye fluorescence change)” value (OR11G2) was “dose-dependent increase of receptor activity”.

With `Cc1c[nH]c2ccccc12` [skatole, 3-methyl indole] the “receptor response in vitro” value (OR8S1) was “responded”, the “receptor response in vitro” value (OR11H4) was “responded” and the “receptor activity (Calcium 5 dye fluorescence change)” value (OR11G2) was “dose-dependent increase of receptor activity”.
